# Measured values: paper PMC10530293, “Supramolecular multivalency effects enhance imine formation in aqueous medium allowing for dynamic modification of enzymatic activity” (Chemical Science, 2023)
# Target: T1, carbonic anhydrase (CA) from bovine erythrocytes (Bos taurus, UniProt P00921)
# T1 construct: gene CA2; native full-length enzyme from bovine erythrocytes, N-terminal Ser1, 18 Lys
# Assay: UV monitoring of 4-nitrophenyl acetate hydrolysis (esterase activity)
# Format: biochemical
# Conditions: read-out: apparent IC50
# T1 sequence (P00921 2-260): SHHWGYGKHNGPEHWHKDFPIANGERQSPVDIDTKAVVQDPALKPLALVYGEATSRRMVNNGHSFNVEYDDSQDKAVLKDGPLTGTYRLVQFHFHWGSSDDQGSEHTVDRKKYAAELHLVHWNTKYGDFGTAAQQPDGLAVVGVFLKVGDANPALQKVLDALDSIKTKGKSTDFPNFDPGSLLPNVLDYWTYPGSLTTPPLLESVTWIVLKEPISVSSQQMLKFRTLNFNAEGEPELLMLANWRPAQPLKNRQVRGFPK
smiles,measurement,value
O=Cc1c(F)c(F)c(SC[C@H](NC(=O)OCc2ccccc2)C(=O)O)c(F)c1F [A8],IC50,~1000 nM
